Laboratory results as given in ChEMBL document CHEMBL1149118, “Validation of molecular docking calculations involving FGF-1 and FGF-2” (J Med Chem, 2004).
pKd: −log10 of the molar value.

Key:
[1] = biological target: T1, Fibroblast growth factor 2 (Homo sapiens, UniProt P09038); assay: Binding affinity for Fibroblast growth factor 2
[2] = biological target: T2, Fibroblast growth factor 1 (Homo sapiens, UniProt P05230); assay: Dissociation constant for Fibroblast growth factor 1
[3] = biological target: T2, Fibroblast growth factor 1; assay: Binding affinity for Fibroblast growth factor 1
[4] = biological target: T1, Fibroblast growth factor 2; assay: Dissociation constant for Fibroblast growth factor 2
[5] = biological target: T1, Fibroblast growth factor 2; assay: Dissociation constant for Fibroblast growth factor 2 (None Observed)
[6] = biological target: T1, Fibroblast growth factor 2; assay: Dissociation constant for Fibroblast growth factor 2 (None observed)

T1 sequence (P09038 143-288 limits assumed): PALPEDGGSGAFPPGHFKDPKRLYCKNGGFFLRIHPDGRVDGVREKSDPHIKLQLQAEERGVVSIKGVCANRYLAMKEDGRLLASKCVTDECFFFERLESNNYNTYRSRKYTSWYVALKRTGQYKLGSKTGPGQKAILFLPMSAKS
T2 sequence (P05230 whole entry): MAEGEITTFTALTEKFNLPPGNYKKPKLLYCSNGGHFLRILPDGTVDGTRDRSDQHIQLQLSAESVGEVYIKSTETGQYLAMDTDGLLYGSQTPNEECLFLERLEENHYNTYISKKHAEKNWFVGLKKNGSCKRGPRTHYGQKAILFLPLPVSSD

Row | Structure (SMILES) | Delta G [1] [kcal/mol] | pKd [2] | Delta G [3] [kcal/mol] | pKd [4] | Kd [5] | Kd [6]
1 | O=S(=O)(O)OC[C@@H]1O[C@H](O[C@H]2[C@H](OS(=O)(=O)O)[C@H](OS(=O)(=O)O)C(OS(=O)(=O)O)O[C@H]2COS(=O)(=O)O)[C@@H](OS(=O)(=O)O)[C@H](OS(=O)(=O)O)[C@H]1OS(=O)(=O)O (some centres not stated) | -7.09 | 6.27 | -8.54 | 5.20 |  | 
2 | CO[C@H]1O[C@H](COS(=O)(=O)O)[C@@H](OS(=O)(=O)O)[C@H](OS(=O)(=O)O)[C@@H]1OS(=O)(=O)O | -4.72 | 3.90 | -5.31 | 3.46 |  | 
3 | CO[C@@H]1CCO[C@H](COS(=O)(=O)O)C1OS(=O)(=O)O (some centres not stated) | -2.39 | 2.23 | -3.04 | 1.76 |  | 
4 | O=C(O)c1cc(/N=N/c2ccc(S(=O)(=O)Nc3ccccn3)cc2)ccc1O [SULFASALAZINE] |  | 3.22 | -4.38 |  | None Observed | 
5 | O=C(CN(Cc1ccccc1)C(=O)C1OC(OS(=O)(=O)O)C(OS(=O)(=O)O)C(OS(=O)(=O)O)C1OS(=O)(=O)O)NC1CCCCC1 (configuration not stated) | -4.67 | 3.92 | -5.35 | 3.43 |  | 
6 | O=S(=O)(O)OC[C@H]1OCC[C@@H](OCc2ccccc2)C1OS(=O)(=O)O (some centres not stated) | -3.13 | 2.47 | -3.36 | 2.29 |  | 
7 | O=S(=O)(O)OC[C@H]1OCC[C@@H](OCCCOc2ccccc2)C1OS(=O)(=O)O (some centres not stated) | -2.9 | 2.49 | -3.39 | 2.12 |  | 
8 | C=CCOC1C(C)OC(OC)C(OS(=O)(=O)O)C1OS(=O)(=O)O (configuration not stated) |  | 2.87 | -3.92 |  |  | None observed
9 | [N-]=[N+]=NCC1OC(OS(=O)(=O)O)C(OS(=O)(=O)O)C(OS(=O)(=O)O)C1OS(=O)(=O)O (configuration not stated) | -4.89 | 3.47 | -4.73 | 3.59 |  | 
10 | O=S(=O)(O)C[C@@H]1[C@@H](O[C@]2(COS(=O)(=O)O)O[C@H](COS(=O)(=O)O)[C@@H](OS(=O)(=O)O)[C@@H]2OS(=O)(=O)O)O[C@@H](CS(=O)(=O)O)[C@@H](OS(=O)(=O)O)[C@H]1OS(=O)(=O)O | -7.17 | 6.13 | -8.36 | 5.26 |  | 
11 | CO[C@@H]1O[C@@H](COS(=O)(=O)O)[C@@H](OS(=O)(=O)O)[C@H](OC(=O)c2ccccc2)[C@@H]1OC(=O)c1ccccc1 |  | 3.04 | -4.14 |  |  | None observed
12 | CO[C@H]1O[C@@H](COCC(=O)N(CCOS(=O)(=O)O)CC(=O)NC2CCCCC2)[C@@H](OS(=O)(=O)O)[C@H](OS(=O)(=O)O)[C@H]1OS(=O)(=O)O | -4.44 | 3.52 | -4.8 | 3.26 |  | 
13 | O=S(=O)(O)OC[C@@H]1O[C@H](OS(=O)(=O)O)[C@H](OS(=O)(=O)O)[C@@H](OS(=O)(=O)O)[C@@H]1OS(=O)(=O)O | -5.19 | 4.43 | -6.04 | 3.81 |  | 
14 | O=S(=O)(O)c1ccc2c(S(=O)(=O)O)cc(S(=O)(=O)O)cc2c1 [NAPHTHALENE TRISULFONATE] | -4.98 | 3.32 | -4.53 | 3.65 |  | 
15 | CO[C@@H]1O[C@@H](COS(=O)(=O)O)[C@@H](O[C@@H]2O[C@@H](COS(=O)(=O)O)[C@H](OS(=O)(=O)O)[C@H](OS(=O)(=O)O)[C@@H]2OS(=O)(=O)O)[C@H](OS(=O)(=O)O)[C@@H]1OS(=O)(=O)O | -6.53 | 5.94 | -8.1 | 4.79 |  | 
16 | O=S(=O)(O)C[C@@H]1[C@H](OS(=O)(=O)O)O[C@H](OS(=O)(=O)O)[C@H](O[C@H]2O[C@@H](COS(=O)(=O)O)[C@@H](OS(=O)(=O)O)[C@H](OS(=O)(=O)O)[C@H]2OS(=O)(=O)O)[C@H]1OS(=O)(=O)O | -6.24 | 6.89 | -9.39 | 4.57 |  | 
17 | O=S(=O)(O)OC[C@@H]1O[C@@H](O[C@H]2[C@H](OS(=O)(=O)O)[C@H](OS(=O)(=O)O)C(OS(=O)(=O)O)O[C@H]2COS(=O)(=O)O)[C@@H](OS(=O)(=O)O)[C@H](OS(=O)(=O)O)[C@H]1OS(=O)(=O)O (some centres not stated) | -6.65 | 5.92 | -8.07 | 4.88 |  | 
18 | O=S(=O)(O)OC[C@@H]1O[C@H](OS(=O)(=O)O)[C@H](OC2O[C@@H](COS(=O)(=O)O)[C@@H](S(=O)(=O)O)[C@H](O[C@H]3O[C@@H](COS(=O)(=O)O)[C@@H](OS(=O)(=O)O)[C@H](OS(=O)(=O)O)[C@H]3OS(=O)(=O)O)[C@H]2OS(=O)(=O)O)[C@@H](OS(=O)(=O)O)[C@@H]1OS(=O)(=O)O (some centres not stated) | -8.08 | 8.11 | -11.1 | 5.93 |  | 
19 | COC1OC(C)C(OCc2ccccc2)C(OS(=O)(=O)O)C1OS(=O)(=O)O (configuration not stated) | -4.91 | 3.47 | -4.73 | 3.60 |  | 
20 | COC1C(OCc2ccccc2)C2COC(O2)C1OS(=O)(=O)O (configuration not stated) | -2.86 | 3.51 | -4.79 | 2.10 |  | 
